Results: patent publication US11559231B2, “System and method for determining a discrimination index for fear-potentiated startle” (Rosalind Franklin University of Medicine and Science, priority 2018, dated 2023)
Structures can show the parent of a compound that is named as a salt.

Molecular target: T1, OT receptors (OTR) in the BNSTdl (Rattus norvegicus, UniProt P70536)
T1 construct: OT (100 ng), OTA (200 ng), or ACSF (all in volume of 0.5 μl per side) was injected bilaterally into the BNSTdl; from tissue; host or cells: brain (dorsolateral bed nucleus of the stria terminalis) of live male Sprague-Dawley rats
T1 sequence (P70536 1-388): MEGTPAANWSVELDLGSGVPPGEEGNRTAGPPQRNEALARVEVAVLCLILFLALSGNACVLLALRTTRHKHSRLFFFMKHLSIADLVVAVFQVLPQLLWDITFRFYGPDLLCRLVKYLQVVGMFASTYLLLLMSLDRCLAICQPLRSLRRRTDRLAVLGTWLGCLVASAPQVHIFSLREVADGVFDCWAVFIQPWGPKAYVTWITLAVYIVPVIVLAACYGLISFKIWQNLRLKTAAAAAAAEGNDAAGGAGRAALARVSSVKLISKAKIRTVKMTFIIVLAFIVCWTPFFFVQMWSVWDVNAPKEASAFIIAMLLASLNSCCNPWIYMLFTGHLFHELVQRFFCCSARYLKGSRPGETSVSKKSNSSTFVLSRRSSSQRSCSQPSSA
Assay: Fear-potentiated startle (FPS): intra-BNSTdl OT or OTA before cued fear conditioning, then fear recall testing
Assay type: in vivo
Details: for TREATMENT effect on cued fear (percentage change of startle amplitude): OT 100 ng or OTA 200 ng bilateral intra-BNSTdl 10 min before fear conditioning, recall 24 h later in context B, P=0.0981; for TREATMENT effect on cued fear (percentage change of startle amplitude) / total discrimination index (DI) for the FPS session: one-way ANOVA ACSF/OT/OTA; for total discrimination index (DI) for the FPS session: all trials, P=0.1492; for discrimination between cued and non-cued fear (summary statement): infused into the BNSTdl before fear conditioning, FPS; for TREATMENT effect on cued fear (percent change), negative controls: injection sites outside the BNST, P=0.3990; for discrimination index over four time blocks, negative controls: injection sites outside the BNSTdl, P=0.5828; for discrimination index over four time blocks, negative controls / startle amplitude, light-noise vs noise-alone trials: effect of TREATMENT: two-way repeated measures ANOVA; for mean shock reactivity during the fear conditioning session / TREATMENT effect on percentage change of contextual fear / TREATMENT effect on percentage change of non-cued fear / startle amplitude, light-noise vs noise-alone trials: effect of TREATMENT: intra-BNSTdl ACSF, OT 100 ng, OTA 200 ng; for mean shock reactivity during the fear conditioning session: P=0.8684; for TREATMENT effect on percentage change of contextual fear: context A, day 5; for TREATMENT effect on percentage change of non-cued fear: context B, P=0.8993; for startle amplitude, light-noise vs noise-alone trials: effect of TREATMENT: P=0.8478
Description: A total of 75 rats were used for FPS experiments. The ACSF-treated group consisted of 23 rats, whereas there were 14 OT and 16 OTR antagonist (OTA)-treated rats included in the main analysis. […] These rats were analyzed as negative controls.
Stereotaxic surgery technique was identical to above except that guide cannulas were implanted bilaterally instead of a microdialysis probe (Moaddab and Dabrowska, 2017).
OT (100 ng), OTA (200 ng), or ACSF (all in volume of 0.5 μl per side) was injected bilaterally into the BNSTdl through a microinjector (28-gauge, 7 mm length; Plastics One, Roanoke, Va.) as described before (Moaddab and Dabrowska, 2017). Doses of OT and OTA were chosen based on previous studies on fear and anxiety in rats (Bale et al., 2001; Toth et al., 2012; Lahoud and Maroun, 2013; Neumann and Slattery, 2016; Moaddab and Dabrowska, 2017). Rats were assigned based on a second pre-test ASR into three treatment groups. Fear conditioning sessions were performed 10 min after the intra-BNSTdl injections.
FPS procedures were modified based on previous studies and according to protocol described in detail before (Walker et al., 2009; Missig et al., 2010; Ayers et al., 2011; Moaddab and Dabrowska, 2017). On days 1 and 2, rats underwent two pre-test sessions. On day 3 (fear conditioning), animals were placed in cylindrical enclosures containing a grid floor conveying foot shocks (as above). After 5 min acclimation, animals received 10 presentations of a 3.7 s cue light (CS), each co-terminating with a 0.5 s foot shock (US; 0.5 mA, inter-trial-interval 60-180 s). Background noise was absent during the conditioning session. Enclosures and chambers were cleaned with PREempt RTU disinfectant solution (Virox Technologies, Oakville, Canada) before and after each fear […] conditioning session (context A). Twenty-four hours later, on day 4, rats were tested for FPS expression (recall test) in context B. After 5 min of acclimation, they were exposed to 50 startle-eliciting WNBs (as above) and levels of cued and non-cued fear were measured. A background white noise of 70 dB continuously played throughout the session. The session consisted of 10 baseline startle trials (excluded from the analysis) followed by an additional 40 trials, with half presented in the presence of the cue light (CS+, light-noise) and the other half without the CS (CS-, noise-alone) in a pseudorandom order (inter-trial-interval 30 s). To make context A distinct from context B, enclosures and chambers were cleaned with 70% ethanol before and after the […] (different than in fear conditioning). The grid floor was also removed from the enclosures during cued FPS testing. In addition, a different experimenter from the training session performed the FPS testing session. On day 5, the same rats were tested for contextual fear recall in context A, where after 10 baseline startle trials (excluded from the analysis), startle amplitude was measured during 40 additional CS− trials (noise-alone, inter-trial-interval 30 s, FIG. 5, C).
Startle amplitude was defined as the maximum peak voltage within the first 200 ms after onset of the WNB. Shock reactivity amplitude was recorded during the fear conditioning session and was defined as the maximum peak voltage that occurred during the 500 ms foot shock delivery. Cued, non-cued, and contextual fear, were calculated as percent change scores of startle amplitude based on previous FPS studies (Walker et al., 2009; Missig et al., 2010; Ayers et al., 2011; Moaddab and Dabrowska, 2017).

Molecule	discrimination index in the fourth time block of fear memory recall, vs ACSF-treated group (OT 100 ng intra-BNSTdl, Bonferroni post hoc, P=0.0121)	TREATMENT effect on cued fear (percentage change of startle amplitude)	total discrimination index (DI) for the FPS session	discrimination between cued and non-cued fear (summary statement)	TREATMENT effect on cued fear (percent change), negative controls	discrimination index over four time blocks, negative controls	mean shock reactivity during the fear conditioning session	TREATMENT effect on percentage change of contextual fear	TREATMENT effect on percentage change of non-cued fear	startle amplitude, light-noise vs noise-alone trials: effect of TREATMENT	discrimination index in the fourth time block of fear memory recall, OT vs OTA-treated groups (OT 100 ng vs OTA 200 ng intra-BNSTdl, Bonferroni post hoc, P=0.0007)	OTA effect on cued fear vs ACSF (OTA 200 ng intra-BNSTdl, un-paired t-test vs ACSF, P=0.0763)
CC[C@H](C)[C@@H]1NC(=O)[C@H](Cc2ccc(O)cc2)NC(=O)[C@@H](N)CSSC[C@@H](C(=O)N2CCC[C@H]2C(=O)N[C@@H](CC(C)C)C(=O)NCC(N)=O)NC(=O)[C@H](CC(N)=O)NC(=O)[C@H](CCC(N)=O)NC1=O [OT, OT acetate salt]	significant differences in the discrimination indices	a trend in the TREATMENT effect on cued fear	not significantly different	significantly increases discrimination between cued and non-cued fear	no significant effect of TREATMENT on cued fear	no significant main effect of TREATMENT	not different	no TREATMENT effect	no TREATMENT effect	no main effect of TREATMENT	–	–
(d(CH2)5^1, D-Tyr^2, Thr4, Orn8, des-Gly-NH2 9)-vasotocin trifluoroacetate salt [OTA]	–	a trend in the TREATMENT effect on cued fear	not significantly different	disables this discrimination	no significant effect of TREATMENT on cued fear	no significant main effect of TREATMENT	not different	no TREATMENT effect	no TREATMENT effect	no main effect of TREATMENT	significant differences in the discrimination indices	a trend in the OTA effect on cued fear
